This note sets out measurements from patent publication US10750742B2, “Pesticidally active pyrazole derivatives” (SYNGENTA PARTICIPATIONS AG, priority 2015, dated 2020).

Like-named read-outs stand apart in the source and are kept apart here. Some results are limits rather than exact numbers.

Data set [1] deals with Spodoptera littoralis. Put plainly: Comparison: insecticidal activity against Spodoptera littoralis, larvicide L-3, feeding/contact, soybean plants. In kind it is in vivo. Conditions: 120 h. As for the experimental part:
(§1) Biological Comparison Data:
(§2) Compound A and B are disclosed in WO2014/122083 as example (Ic-1) (p. 76) and (lc-2) (p. 82, Table 3). The activities of compounds A and B to treat different pests are compared with the activities of compound 4, 6, 15 and 35 according to the present invention. The tests are carried out at different concentrations (ppm).
a) Insecticidal Activity Against Spodoptera littoralis (Egyptian Cotton Leaf Worm, Larvicide L-3, Feeding/Contact)
Soybean plants were sprayed with diluted test solutions in an application chamber. The plants (2 replicates) were infested with 10 L3 larvae 1 day after treatment. Samples were checked 5 days after infestation for mortality, feeding behavior, and growth regulation.

Data set [2] relates to Thrips tabaci. Nature of the data set: Comparison: insecticidal activity against Thrips tabaci, sunflower leaf discs. In kind it is in vivo. Conditions: 6 days after infestation. On the procedure: as §1, §2
b) Insecticidal Activity Against Thrips tabaci (Onion Thrips):
(§3) Sunflower leaf discs were placed on agar in 24-well microtiter plates and sprayed with aqueous test solutions prepared from 10′000 ppm DMSO stock solutions. After drying the leaf discs were infested with a thrips population of mixed ages. The samples were assessed for mortality 6 days after infestation.

Data set [3] deals with Spodoptera littoralis. Nature of the data set: Spodoptera littoralis (Egyptian cotton leaf worm), cotton leaf disc spray test. Conditions: foliar, 72 h, read-out: control (at least one of mortality, anti-feedant effect, growth inhibition). In kind it is in vivo. A digest of the protocol:
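Five first-instar larvae per disc were placed on dried, sprayed cotton leaf discs held on agar. Test solutions were aqueous, made from 10′000 ppm DMSO stocks. At day 3, control was counted when mortality, feeding deterrence or growth inhibition exceeded the untreated discs.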

The next data set relates to Euschistus heros. Nature of the data set: Euschistus heros (neotropical brown stink bug), soybean leaf test. Type of data set: in vivo. Conditions: 120 h, read-out: effect in at least one of the two categories (mortality or growth inhibition). As for the experimental part: Euschistus heros (Neotropical Brown Stink Bug):
Soybean leaves on agar in 24-well microtiter plates were sprayed with aqueous test solutions prepared from 10′000 ppm DMSO stock solutions. After drying the leaves were infested with N2 nymphs. The samples were assessed for mortality and growth inhibition in comparison to untreated samples 5 days after infestation.

In a further data set the test system is Plutella xylostella. Nature of the data set: Plutella xylostella (diamond back moth), artificial diet test. In kind it is in vivo. The conditions noted are these: 120 h, read-out: control (mortality and growth inhibition). As for the experimental part:
Plutella xylostella (Diamond Back Moth):
24-well microtiter plates with artificial diet were treated with aqueous test solutions prepared from 10′000 ppm DMSO stock solutions by pipetting. After drying, the plates were infested with L2 larvae (10 to 15 per well). The samples were assessed for mortality and growth inhibition in comparison to untreated samples 5 days after infestation.

Data set [4] has as its system Thrips tabaci. Put plainly: Thrips tabaci (onion thrips), sunflower leaf disc test. In kind it is in vivo. Conditions: foliar, 144 h, read-out: control (mortality). As for the experimental part:
Thrips tabaci (Onion Thrips):
as §3

The subject of data set [5] is Myzus persicae. Put plainly: Myzus persicae (green peach aphid), sucrose solution / Parafilm test. In kind it is in vivo. The conditions noted are these: 120 h. In outline: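 Compound mixed into sucrose solution at 12.5 ppm under stretched Parafilm; aphid-infested pea seedlings set on the membrane and plate inverted so insects feed through it. Mortality assessed 5 days after infestation.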

A further data set deals with Diabrotica balteata. Put plainly: Diabrotica balteata (corn root worm), maize sprout test. In kind it is in vivo. Conditions: 96 h, read-out: control (mortality and growth inhibition). On the procedure: Diabrotica balteata, (Corn Root Worm)
Maize sprouts, placed on an agar layer in 24-well microtiter plates were treated with aqueous test solutions prepared from 10′000 ppm DMSO stock solutions by spraying. After drying, the plates were infested with L2 larvae (6 to 10 per well). The samples were assessed for mortality and growth inhibition in comparison to untreated samples 4 days after infestation.

A further data set concerns Tetranychus urticae. Nature of the data set: Tetranychus urticae (two-spotted spider mite), bean leaf disc test. In kind it is in vivo. Conditions: foliar, 192 h, read-out: control (mortality on mixed population, mobile stages). On the procedure:
Tetranychus urticae (Two-Spotted Spider Mite):
Bean leaf discs on agar in 24-well microtiter plates were sprayed with aqueous test solutions prepared from 10′000 ppm DMSO stock solutions. After drying the leaf discs were infested with a mite population of mixed ages. The samples were assessed for mortality on mixed population (mobile stages) 8 days after infestation.

In data set [6] the test system is Myzus persicae. Put plainly: Myzus persicae (green peach aphid), sunflower leaf disc spray test. The conditions noted are these: foliar, 144 h. In kind it is in vivo.

What is called melting point is the temperature, or range, at which the solid turns liquid. In turn, `Cn1nc(OC(F)(F)C(F)C(F)(F)F)c(C(F)(F)F)c1-n1cc(-c2cccc(C(=O)NC3(C#N)CC3)c2F)cn1` (stereo not drawn) yielded a melting point of 59 to 61 °C.

Regarding `CN1N=C(OC(F)(F)C(F)C(F)(F)F)C(C(F)(F)F)C1n1cc(-c2cc(F)c(Cl)c(C(=O)NC3CC3)c2)cn1` (stereo not drawn), the melting point fell in the range of 114 to 116 °C.

The compound `CN1N=C(OC(F)(F)C(F)C(F)(F)F)C(C(F)(F)F)C1n1cc(-c2cc(F)c(Cl)c(C(=O)NC3(C#N)CC3)c2)cn1` (stereo not drawn) had a melting point of 82 to 84 °C.

The compound `Cn1nc(OC(F)(F)C(F)C(F)(F)F)c(C(F)(F)F)c1-n1cc(-c2cc(C(=O)NC3CC3)c(Cl)cc2F)cn1` (stereo not drawn) showed a melting point of 68 to 70 °C.

The compound `Cn1nc(OC(F)(F)C(F)C(F)(F)F)c(C(F)(F)F)c1-n1cc(-c2cc(Cl)c(Cl)c(C(=O)NC3CC3)c2)cn1` (stereo not drawn) came in with a melting point of 67 to 70 °C.

`Cn1nc(OC(F)(F)C(F)C(F)(F)F)c(C(F)(F)F)c1-n1cc(-c2cc(Cl)c(Cl)c(C(=O)NC3(C#N)CC3)c2)cn1` (stereo not drawn) gave a melting point of 162 to 165 °C.

Usually mortality stands for the percentage killed. Consider `Cn1nc(C(F)(F)C(F)(F)F)c(C(F)(F)F)c1-n1cc(-c2ccc(Cl)c(C(=O)NC3CC3)c2)cn1` [A, reference compound], for which, in the data set on Spodoptera littoralis [1], the mortality at 0.2 ppm is 0%, the mortality at 0.8 ppm is 15%, the mortality at 3 ppm was found to be 55% and the mortality at 12.5 ppm stood at 85%.

Consider `Cn1nc(C(F)(F)C(F)(F)F)c(C(F)(F)F)c1-n1cc(-c2ccc(Cl)c(C(=O)NC3(C#N)CC3)c2)cn1` [B, reference compound], for which the mortality at 0.2 ppm was 20% in the data set on Spodoptera littoralis [1] and 25% in the data set on Thrips tabaci [2] (Thrips tabaci, foliar, 144 h, 0.2 ppm). The mortality at 0.8 ppm with Spodoptera littoralis [1] was 75%; with Thrips tabaci [2] (Thrips tabaci, foliar, 144 h, 0.8 ppm), 90%. The mortality at 3 ppm with Spodoptera littoralis [1] worked out at 100%; in the data set on Thrips tabaci [2] (Thrips tabaci, foliar, 144 h, 3 ppm), 100%. Besides, the mortality at 12.5 ppm in the data set on Spodoptera littoralis [1] amounted to 100%; with Thrips tabaci [2] (Thrips tabaci, foliar, 144 h, 12.5 ppm) it was 90%. Besides, the “Mortality (%)” value in the data set with Thrips tabaci [2] (12.5 ppm) came out at 100%. Moreover, the mortality at 0.05 ppm in the data set with Thrips tabaci [2] (Thrips tabaci, foliar, 144 h, 0.05 ppm) worked out at 0%. The compound further returned a mortality at 0.781 ppm with Thrips tabaci [2] (Thrips tabaci, foliar, 144 h, 0.781 ppm) of 0%. The compound further had a mortality at 3.12 ppm in the data set on Thrips tabaci [2] (Thrips tabaci, foliar, 144 h, 3.12 ppm) of 25%. The mortality at 50 ppm in the data set on Thrips tabaci [2] (Thrips tabaci, foliar, 144 h, 50 ppm) was found to be 100%. In addition, in the data set with Thrips tabaci [2] (Thrips tabaci, foliar, 144 h, 200 ppm), the mortality at 200 ppm is 100%.

As for `Cn1nc(OC(F)(F)C(F)C(F)(F)F)c(C(F)(F)F)c1-n1cc(-c2ccc(Cl)c(C(=O)NC3CC3)c2)cn1` (stereo not drawn) [compound 6], the mortality at 0.2 ppm in the data set with Spodoptera littoralis [1] (0.2 ppm, L3 larvae, 5 days after infestation, read-out: Mortality (%)) is 0%. Moreover, in the data set on Spodoptera littoralis [1] (0.8 ppm, L3 larvae, 5 days after infestation, read-out: Mortality (%)), the mortality at 0.8 ppm is 0%. Besides, the mortality at 3 ppm in the data set with Spodoptera littoralis [1] (3.0 ppm, L3 larvae, 5 days after infestation, read-out: Mortality (%)) is 100%. In addition, the mortality at 12.5 ppm with Spodoptera littoralis [1] (12.5 ppm, L3 larvae, 5 days after infestation, read-out: Mortality (%)) is 100%. Further, the percent control (mortality, anti-feedant effect or growth inhibition) at 200 ppm in the data set with Spodoptera littoralis [3] (application rate 200 ppm, L1 larvae, 3 days after infestation) was at least 80%. Further, the percent effect (mortality or growth inhibition) at 200 ppm in the data set on Euschistus heros (application rate 200 ppm, N2 nymphs, 5 days after infestation) is at least 80%. Besides, the mortality at 200 ppm was at least 80% in the data set with Plutella xylostella (application rate 200 ppm, L2 larvae, 5 days after infestation); at least 80% in the data set on Thrips tabaci [4] (application rate 200 ppm, mixed ages, 6 days after infestation); at least 80% with Diabrotica balteata (application rate 200 ppm, L2 larvae, 4 days after infestation); at least 80% with Tetranychus urticae (application rate 200 ppm, 8 days after infestation); at least 80% with Myzus persicae [6] (application rate 200 ppm, mixed ages, 6 DAT, read-out: mortality). The mortality at 12 ppm in the data set on Myzus persicae [5] (test rate of 12 ppm, sucrose solution, 5 days after infestation, read-out: mortality) is at least 80%.

In turn, `Cn1nc(OC(F)(F)C(F)(F)C(F)(F)F)c(C(F)(F)F)c1-n1cc(-c2ccc(Cl)c(C(=O)NC3(C#N)CC3)c2)cn1` [compound 35] displayed a mortality at 0.2 ppm with Spodoptera littoralis [1] of 0%. In addition, the mortality at 0.8 ppm with Spodoptera littoralis [1] came to 100%. For the same compound, the mortality at 3 ppm in the data set with Spodoptera littoralis [1] came to 100%. For the same compound, the mortality at 12.5 ppm in the data set on Spodoptera littoralis [1] was 100%. In addition, the mortality at 200 ppm in the data set on Spodoptera littoralis [3], in the data set with Plutella xylostella, in the data set with Thrips tabaci [4], with Diabrotica balteata, in the data set with Tetranychus urticae and with Myzus persicae [6] was at least 80% throughout. For the same compound, the percent control (mortality or growth inhibition) at 200 ppm in the data set on Euschistus heros is at least 80%. Besides, the mortality at 12 ppm in the data set on Myzus persicae [5] was at least 80%.
